Measurements published in patent EP2292225A1 (priority 1997, dated 1998).
“And” between values parts separate entries of the source, which are not always exact repeats. Equal entries are not always repeated. “Also recorded” adds a separate entry of the source.

Tests used:
[1] = test system: Vascular smooth muscle (BO54) cells; format: cell-based, baboon
[2] = test system: balloon traumatized rabbit carotid artery; format: in vivo; details: rabbit, in vivo
left carotid artery [3] = test: Periadventitial delivery of crystals in pluronic gel after balloon trauma; format: in vivo, rats
Method: To further evaluate the efficacy of crystalline taxol to inhibit neointimal formation in rats, four groups of 5-6 adult male rats underwent balloon trauma of the left carotid artery followed immediately by periadventitial delivery of 1, 0.1,0.01 or 0 mg of taxol crystals in 500 mg of a pluronic polymer in gel matrix. Fourteen days later, the rats were sacrificed, serum was collected and their carotid arteries were processed for histologic and morphometric analysis.

left carotid artery [4] = details: rat, in vivo
[5] = Biodistribution of ^3H-cytochalasin B i.v.; format: in vivo, BALB/c mice
Method: (§1) ^3H-cytochalasin B (2 µg; 30 µCi/µg) was injected i.v. into BALB/c mice having urinary bladders that had been externally ligated. Animals were sacrificed at 15 minutes, 30 minutes, 2 hours or 16 hours post-injection. Organs were removed, blotted, weighed, air dried and assayed for radioactivity. Fifty - 73% of the total injected dose was accounted for in the tissues sampled (blood, heart, brain, muscle, bone, lung, liver, spleen, stomach, kidney, intestines, and urinary bladder). Clearance of ^3H-cytochalasin B from the blood was extremely rapid with less than 1% of the injected dose in circulation by 15 minutes. […] Cytochalasin B Metabolism. ^3H-cytochalasin B at a dose of 1.5 or 8 µg/ml was mixed with viable or non-viable human liver slices and media, and the amount of ^3H-cytochalasin B in media or tissue assessed by HPLC (Tables 8 and 9).

[6] = Human liver slices distribution and metabolism study (HPLC); format: in vitro ADME; details: for % Activity in Media / % Activity in Tissue: 37°C
Method: as §1

[7] = MTT activity in human liver slices after 24 hour exposure; format: cell-based; details: for MTT Absorbance: 24 hours, mean +/- standard deviation of triplicate liver samples
Method: The cytotoxity of ^3H-cytochalasin B and its subsequent metabolites was also assessed by evaluating dose dependent changes in mitochondrial function by monitoring 3-[4, 5-dimethylthiazol-2yl]-2, 5-diphenyltetrazolium bromide (MTT) activity following a 24 hour exposure of human liver slices to the test agent (Table 10).

[8] = Tissue distribution after intravascular delivery of crystals; format: in vivo, swine; details: 10 µg/ml crystals in saline (saturated), three minutes under 1 atm
Method: The in vivo tissue distribution of cytochalasin B administered in crystalline form was evaluated in balloon traumatized swine femoral arteries after local delivery. A femoral artery of a Yorkshire crossbred swine was balloon traumatized by overinflation and rotation of a Vascu-Flo™ Silicone embolectomy catheter. Balloon trauma was immediately followed by intravascular delivery of 10 µg/ml ^3H-cytochalasin B crystals (Sigma Chemical Co., St. Louis, MO) in saline (saturated) for three minutes under 1 atm of pressure. Blood flow was resumed in the artery for five minutes prior to sacrifice of the animal.

[9] = 1.5 µg/ml, Media/viable tissue, 1/4/24 Hours = r5/r6/r7
[10] = 1.5 µg/ml, Media/viable tissue, 1/4/24 Hours = r2/r3/r4
[11] = 8 µg/ml, Media/boiled tissue, 1/4/24 Hours = r8/r9/r10
[12] = 8 µg/ml, Media/viable tissue, 1/4/24 Hours = r2/r3/r4
[13] = 8 µg/ml, Media/viable tissue, 1/4/24 Hours = r5/r6/r7

Question: Which “minimum effective dose (MED), DNA synthesis assay” value [1] does the source give for `CC(=O)O[C@@H]1/C=C\[C@@](C)(O)C(=O)[C@@H](C)C/C=C\[C@H]2[C@H](O)C(C)=C(C)[C@H]3C(Cc4ccccc4)NC(=O)[C@]132` (stereo partly drawn) [cytochalasin C] here?
Answer: 0.01 µg/mL

Question: For `O=[N+]([O-])OCC(CO[N+](=O)[O-])O[N+](=O)[O-]` [nitroglycerin], which “therapeutic range (area under the curve of ^3H-leucine assay greater than ^3H-thymidine assay)” value (shortened to “therapeutic range”) [1] is on record?
Answer: available therapeutic range

Question: With `CN[C@@H]1C[C@H]2O[C@@](C)([C@@H]1OC)n1c3ccccc3c3c4c(c5c6ccccc6n2c5c31)C(=O)NC4` [staurosporin] as the compound, how does the “therapeutic range” value [1] read?
Answer: available therapeutic range

Question: Which “therapeutic range” value [1] does the source give for `Cc1ccc(C(=O)Nc2ccc(S(=O)(=O)O)c3cc(S(=O)(=O)O)cc(S(=O)(=O)O)c23)cc1NC(=O)c1cccc(NC(=O)Nc2cccc(C(=O)Nc3cc(C(=O)Nc4ccc(S(=O)(=O)O)c5cc(S(=O)(=O)O)cc(S(=O)(=O)O)c45)ccc3C)c2)c1` [suramin] here?
Answer: available therapeutic range

Question: For `CC(=O)O[C@H]1C(=O)[C@@]2(C)[C@H]([C@H](OC(=O)c3ccccc3)[C@]3(O)C[C@H](OC(=O)[C@H](O)[C@@H](NC(=O)c4ccccc4)c4ccccc4)C(C)=C1C3(C)C)[C@]1(OC(C)=O)CO[C@@H]1C[C@@H]2O` [taxol], which intimal proliferation [2] is on record?
Answer: no intimal or adventitial proliferation; also recorded: no intimal proliferation; also recorded: only minimal intimal proliferation

Question: And the “myonecrosis of the adjacent skeletal muscle (animals)” value (“myonecrosis” for short) (left carotid artery [3]; 0.01 mg crystals in 500 mg pluronic gel)?
Answer: 0/4

Question: And the “myonecrosis” value (left carotid artery [3]; 0.1 mg crystals in 500 mg pluronic gel)?
Answer: 1/5

Question: And the “myonecrosis” value (left carotid artery [3]; 1 mg crystals in 500 mg pluronic gel)?
Answer: 3/3

Question: What about the “neointimal area less than that of control animals” value (left carotid artery [3]; 1 mg crystals in 500 mg pluronic gel, too few animals for statistics) of the same compound?
Answer: 38%

Question: And the “neointimal area and neointimal/medial ratio compared to control animals” value (left carotid artery [3]; 0.1 and 0.01 mg, did not reach statistical significance)?
Answer: a reduction in their neointimal area and neointimal/medial ratio was observed

Question: And the “toxicity by dose group” value (left carotid artery [3]; crystals in pluronic gel)?
Answer: no (0.01 mg), minimal (0.1 mg) or limited (1.0 mg) toxicity

Question: What about the “morphometry compared to untreated control animals” value (left carotid artery [4]) of the same compound?
Answer: statistically significantly larger luminal areas and no neointimal proliferation

Question: And the “toxicity at the surgical site” value (left carotid artery [4])?
Answer: significant toxicity at the surgical site

Question: Which results are given for ^3H-cytochalasin B?
Answer: ^3H activity in all tissues ([5]; by 16 hours): below 1.5 % injected dose per gram of tissue; retention of ^3H activity ([5]; mouse, in vivo): Only liver, skeletal muscle and intestines showed significant retention; % Extractable Activity [6, 9]: 99.5% and 99.4% and 99.6%; %Non extractable Activity [6, 9]: 0.5% and 0.6% and 0.4%; % Activity in Media [6, 10]: 84% and 91%; % Activity in Tissue [6, 10]: 16% and 9%; % Metabolized of Extractable Activity ([6]; 8 µg/ml, Media Only, 1/4/24 Hours = r11/r12/r13): 5% and 4%; % Extractable Activity [6, 11]: 98.7% and 99.5% and 99.0%; % Metabolized of Extractable Activity [6, 11]: 5%; %Non extractable Activity [6, 11]: 1.3% and 0.5% and 1%; % Activity in Media [6, 11]: 87% and 83%; % Activity in Tissue [6, 11]: 13% and 17%; % Extractable Activity [6, 12]: 99.5% and 99.0% and 98.7%; %Non extractable Activity [6, 12]: 0.5% and 1% and 1.3%; % Activity in Media [6, 13]: 88% and 84% and 89%; % Activity in Tissue [6, 13]: 12% and 16% and 11%; metabolized ([6]; within 24 hours): 98%; MTT Absorbance ([7]; 0.1 µg/ml): 0.844 +/- 0.014; MTT Absorbance ([7]; 1.5 µg/ml): 0.841 +/- 0.081; MTT Absorbance ([7]; 8.0 µg/ml): 0.850 +/- 0.082; cytotoxicity of ^3H-cytochalasin B or its subsequent metabolites ([7]; 24 hour exposure): not cytotoxic; amount delivered [8]: 31 µg; tissue distribution [8]: localized predominantly to the adventitia
